Tests used:
telomerase = experiment: Telomerase activity (TRAP) in vivo, aorta of aging stimulation models; set-up: species or system mouse; conditions: oral 0.1 mg/kg/day
Description: In order to investigate the gene expression changes by body parts by the treatment with SL (3′-SL & 6′-SL) compositions in aging stimulation models, 4-week-old male aging stimulation model mice (SAM P1/Sku Slc) were purchased from Central Lab Animal (Korea). Water was freely accessible, and a commercially available pellet feed (Dooyeul Biotech, Korea) was given for one week. […]
In FIGS. 18a and 18b, the telomerase activity was measured using TRAP protocol (Wright et al., 1995). […] The fluorescence of the thus obtained TRAP product was measured using a fluorescent plate reader to quantify telomerase activity. Relative telomerase activity was normalized by the ratio of native […] to sulforhodamine (internal control standard), expressed as a percentage. […]

[1] = system: skin test model (HRM2) mice; experiment: Skin tests (UV irradiation, skin sensitivity, skin irritation, subcutaneous absorption) in skin test model mice; assay type: in vivo, mouse; conditions: oral 0.1 mg/kg/day, 10 weeks
Source text: In order to investigate the gene expression chages by body parts by the treatment with the SL (3′-SL & 6′-SL) compositions in skin test models, 6-week-old male skin test model (HRM2) mice (hairless appearance containing melanin) were randomly grouped into three different dietary treatment groups (8 animals per group, a total of 24 animals) below, and the diets (AIN-76A, Dyets, USA) were maintained for 10 weeks. The UV irradiation (black spot, wrinkle test), skin sensitivity test, skin irritation test, subcutaneous absorption test, or the like were conducted using a portable color-difference meter (CR-10, Minolta, Japan): • Control group: Group fed with a normal diet (8 animals) • 3′-SL administration group: Models treated with 3′-sialyllactose (3′-SL, Sigma) (oral administration of 0.1 mg per kg of mouse weight per day) in addition to the normal diet group (8 animals) • 6′-SL administration group: Models treated with 6′-sialyllactose (6′-SL, Sigma) (oral administration of 0.1 mg per kg of mouse weight per day) in addition to the normal diet group (8 animals)

| Structure (SMILES) | telomerase activity in aorta sample (in vivo) (telomerase) | skin state in UV irradiation (black spot, wrinkle test), skin sensitivity, skin irritation, subcutaneous absorption tests vs control [1] |
| --- | --- | --- |
| CC(=O)N[C@H]1[C@H]([C@H](O)[C@H](O)CO)O[C@@](O[C@H]2[C@@H](O)[C@@H](CO)O[C@@H](O[C@H]3[C@H](O)[C@@H](O)C(O)O[C@@H]3CO)[C@@H]2O)(C(=O)O)C[C@@H]1O (stereo partly drawn) [3′-SL, α-NeuNAc-(2→3)-β-D-Gal-(1→4)-D-Glc] | increased telomerase activity | much improved skin |
| CC(=O)N[C@H]1[C@H]([C@H](O)[C@H](O)CO)O[C@@](OC[C@H]2O[C@@H](O[C@H]3[C@H](O)[C@@H](O)[C@H](O)O[C@@H]3CO)[C@H](O)[C@@H](O)[C@H]2O)(C(=O)O)C[C@@H]1O [6′-SL, α-NeuNAc-(2→6)-β-D-Gal-(1→4)-D-Glc] | increased telomerase activity | much improved skin |

Source: patent publication US20190030053A1, “COMPOSITION FOR INCREASING EXPRESSION OF PGC-1alpha” (BENEBIOSIS CO., LTD., priority 2016, published 2019)
